The values below come from patent US10689705B2, “FGFR3 fusion gene and pharmaceutical drug targeting same” (Chugai Seiyaku Kabushiki Kaisha, priority 2012, dated 2020).
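Note: proliferation measured with WST-8, IC50 derived by least-squares fitting.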

In the assay the test system is colon cancer-derived cell line HCT116. Nature of the assay: cells. Particulars: Homo sapiens, HCT-116, 96 h, read-out: HCT116 (CRC) IC50.
Regarding `Cc1nc2ccc(-n3ncc(C(=O)c4cc5ccc(C6CCN(C)CC6)cc5[nH]4)c3N)cc2[nH]1` [Compound 2], the IC50 is 2.7 µM. As for `Cc1nc2cc(-n3ncc(C(=O)c4cc5ccc(CN6CCOC[C@@H]6C)cc5[nH]4)c3N)ccc2[nH]1` [Compound 3], the IC50 amounted to 2.9 µM. Turning to `Cc1nc2ccc(-n3ncc(C(=O)c4cc5cc(CN6CCCC(F)C6)ccc5[nH]4)c3N)cc2[nH]1` (stereo not drawn) [Compound 4], the IC50 was 9.5 µM. `Cc1nc2ccc(-n3ncc(C(=O)c4cc5cc(CN6C(C)CCC6C)ccc5[nH]4)c3N)cc2[nH]1` (stereo not drawn) [Compound 5]: the concentration for half-maximal inhibition (IC50) is 11 µM. In the case of `Cc1nc2cc(-n3ncc(C(=O)c4cc5ccc(OCC6(C)COC6)cc5[nH]4)c3N)ccc2[nH]1` [Compound 6], the IC50 was 12 µM. Consider `COCCN(CCOC)Cc1ccc2cc(C(=O)c3cnn(-c4ccc5[nH]c(C)nc5c4)c3N)[nH]c2c1` [Compound 8], for which the IC50 came to 11 µM. Turning to `Cc1nc2cc(-n3ncc(C(=O)c4cc5ccc(OCCN6CCN(C)CC6)cc5[nH]4)c3N)ccc2[nH]1` [Compound 9], the IC50 stood at 6.3 µM. As to `Cc1nc2ccc(-n3ncc(C(=O)c4cc5ccc(C#N)cc5[nH]4)c3N)cc2[nH]1` [Compound 10], the IC50 was > 50 µM.

Take `Cc1nc2ccc(-n3ncc(C(=O)c4cc5cc(C6CCN(C(C)C)CC6)ccc5[nH]4)c3N)cc2[nH]1` [Compound 11]: the IC50 came to 5.7 µM. As to `Cc1nc2cc(-n3ncc(C(=O)c4cc5ccc(C6CC6)cc5[nH]4)c3N)ccc2[nH]1` [Compound 12], the IC50 turned out to be 7.2 µM. Consider `Cc1nc2ccc(-n3ncc(C(=O)c4cc5ccc(-c6cccs6)cc5[nH]4)c3N)cc2[nH]1` [Compound 13], for which the IC50 worked out at 0.39 µM. As for `Cc1nc2cc(-n3ncc(C(=O)c4cc5cc6c(cc5[nH]4)OCCO6)c3N)ccc2[nH]1` [Compound 14], the 50% inhibitory concentration (IC50) was determined as 3.1 µM. Regarding `Cc1nc2cc(-n3ncc(C(=O)c4cc5ccccc5[nH]4)c3N)c(F)cc2[nH]1` [Compound 15], the IC50 was 19 µM. Regarding `CCCCc1ccc2cc(C(=O)c3cnn(-c4ccc5nc(C)[nH]c5c4)c3N)[nH]c2c1` [Compound 16], the IC50 came to 17 µM. Regarding `Cc1nc2ccc(-n3ncc(C(=O)c4cc5cc(C6CCN(C7CCCC7)CC6)ccc5[nH]4)c3N)cc2[nH]1` [Compound 17], the concentration for half-maximal inhibition (IC50) came out at 3.8 µM. For `COc1ccc2cc(C(=O)c3cnn(-c4ccc5[nH]c(C)nc5c4)c3N)[nH]c2c1` [Compound 18] the value was 11 µM. With `C#CCN(C)Cc1ccc2cc(C(=O)c3cnn(-c4ccc5[nH]c(C)nc5c4)c3N)[nH]c2c1` [Compound 19], the IC50 worked out at 2.5 µM. Turning to `Cc1nc2cc(-n3ncc(C(=O)c4cc5ccc(-c6ccc(N7CCOCC7)nc6)cc5[nH]4)c3N)ccc2[nH]1` [Compound 20], the IC50 is > 50 µM.

As to `Cc1nc2cc(-n3ncc(C(=O)c4cc5ccc(OC6COC6)cc5[nH]4)c3N)ccc2[nH]1` [Compound 21], the IC50 turned out to be 21 µM. For `Cc1nc2cc(-n3ncc(C(=O)c4cc5ccc(I)cc5[nH]4)c3N)ccc2[nH]1` [Compound 22], the half-maximal inhibitory concentration (IC50) amounted to 1.2 µM.

Consider `CN1CCC(c2ccc3[nH]c(C(=O)c4cnn(-c5ccc6nc(C(F)F)[nH]c6c5)c4N)cc3c2)CC1` [Compound 23], for which the half-inhibitory concentration (IC50) was determined as 10 µM. As for `Cc1nc2cc(-n3ncc(C(=O)c4cc5ccc(-c6cnn(C)c6)cc5[nH]4)c3N)ccc2[nH]1` [Compound 24], the IC50 is > 50 µM. As to `COCCOc1ccc2[nH]c(C(=O)c3cnn(-c4ccc5[nH]c(C)nc5c4)c3N)cc2c1` [Compound 25], the IC50 was > 100 µM. For `Cc1nc2cc(-n3ncc(C(=O)c4cc5ccc(-c6ccc(F)cn6)cc5[nH]4)c3N)ccc2[nH]1` [Compound 26] the value was 11 µM; for `Cc1nc2ccc(-n3ncc(C(=O)c4cc5ccc(CO)cc5[nH]4)c3N)cc2[nH]1` [Compound 27], 25 µM. In the case of `Cc1nc2ccc(-n3ncc(C(=O)c4cc5cc(-c6cccnc6)ccc5[nH]4)c3N)cc2[nH]1` [Compound 28], the IC50 is 21 µM. As for `Cc1cc(C)c2cc(C(=O)c3cnn(-c4ccc5[nH]c(C)nc5c4)c3N)[nH]c2c1` [Compound 29], the IC50 turned out to be 8.5 µM.
